Measured values published in paper PMC6072469, “Small molecule piperazinyl-benzimidazole antagonists of the gonadotropin-releasing hormone (GnRH) receptor” (MedChemComm, 2017).
Values after ≈ are worked out from the molar mass of the structure shown. Read-outs that look alike come from different tables or passages of the source. Each block holds one compound with its values, some of them ahead of it.

Columns and labels:
[1] = Solubility (method not given); assay type: physicochemical
[2] = Thermodynamic solubility assay (Analiza, LC-QTOFMS); assay type: physicochemical; conditions: for solubility thermodynamic at 24 h: 24 hour incubation, ambient temperature
Protocol: Thermodynamic solubility assay
Analysis performed at Analiza, Cleveland Ohio.
Apparatus Agilent G6538 QTOF Mass Spectrometer equipped with dual Electrospray Ionization with Mass Hunter data software package Agilent 1290 Infinity II UHPLC system equipped with photodiode array detector, binary pump, vacuum degasser, column heater, thermostat and validated data acquisition software Standard Laboratory equipment (e.g. Pyrex volumetric flasks, graduated cylinders and bottles, sonicator, vortexer, digital timer, calibrated analytical balance, pipettes and tips
Test Compounds: were supplied as dry powder in vials
Consumables: Sodium Chloride (Cat # 21618) was purchased from Affymetrix, Cleveland, OH. HPLC grade water (Cat # EM-WX0004-1), Omnisolv Acetonitrile and (Cat #EM-AX0142-1, DimethylSulfoxide (Cat #D1258) was purchased from Spectrum Chemical, New Brunswick, NJ. DeepWell 96 well plates (Cat #AWLS-219002) were purchased from Arctic White, Bethlehem, PA. Whatman Mini UniPrep syringe-less filter device with […] PTFE filter membrane (Cat #US203NPUORG), Formic Acid (Cat# 0961-100mL) and Round bottom 96 well plates (Cat# 29444-104) were purchased from VWR, Radnor, PA. Benzthiazide (Cat # B7149) and Alprenolol (Cat# A0360000) were purchased from Sigma-Aldrich, St. Louis, MO. Hydrochloric acid,36%, (Cat # 124635000) and Phosphate Buffered Saline, 10X PBS solution, (Cat # BP399-500) were purchased from Fisher Scientific, Fair Lawn, New Jersey.
Preparation of Calibration Standards for LC-MS Analysis:
Separate test compound was weighed into 4mL vials for calibration curves. Samples were received as dry powders in vials containing approximately 5mg of material each. Upon arrival at Analiza the vials were intact.
DimethylSulfoxide (DMSO) was added to each sample such that the final concentration was 10mM and vortexed for 5-10 seconds. After vortexing, all compounds appeared to be fully dissolved. Each test compound was transferred to a polypropylene 96 well plate for robotic preparation of calibration standards.
Each test article DMSO stock solution was serially diluted using a Hamilton STARlet liquid handler with 50-50 LC-MS water 0.1% Formic Acid and LC-MS acetonitrile 0.1% Formic Acid to final concentrations as described below in Table 1 and plated in a polypropylene 96 well plate sealed with foil seal for analysis. A standard calibration curve was prepared for each compound from these dilutions.
Ambient Temperature Test compounds were received as dry powders in vials containing approximately 5mg of material each. Upon arrival at Analiza the vials were intact. Each sample was weighed into a Whatman vial and the appropriate Buffer (450uL) was added to each vial for a dose concentration of approximately 2mg/mL .
Following 24 hour incubation on a rotary shaker (200 RPM) at ambient temperature (22.6-25.0°C), the samples were filtered in a 96 well polypropylene plate. The plate was sealed with a pierceable heat seal and analyzed by […]
Quantitation: 1.) LC-QTOFMS: a. Each sample was weighed into a whatman vial and the appropriate buffer (450uL) was added to each vial for a dose concentration of approximately 2mg/mL incubated for 24 hours and filtered b. The filtrates were assayed undiluted or diluted 100X, 1000X, and/or 10000x with a 50:50 solution of mobile phase and eluted using a fast generic gradient program. c. […] The filtrates were quantified with respect to this calibration curve. […]

hGnRH receptors = target: T1, hGnRH receptors (Homo sapiens, UniProt P30968); test: Functional cell assay (Ca2+ FLIPR): inhibition of receptor activation by LHRH/GnRH; assay type: cell-based; conditions: for potency to inhibit GnRH receptor (in words): compared with 1 / desired range
T1 construct: host or cells: HEK293T (division-arrested, stably expressing)
T1 sequence (P30968 1-328): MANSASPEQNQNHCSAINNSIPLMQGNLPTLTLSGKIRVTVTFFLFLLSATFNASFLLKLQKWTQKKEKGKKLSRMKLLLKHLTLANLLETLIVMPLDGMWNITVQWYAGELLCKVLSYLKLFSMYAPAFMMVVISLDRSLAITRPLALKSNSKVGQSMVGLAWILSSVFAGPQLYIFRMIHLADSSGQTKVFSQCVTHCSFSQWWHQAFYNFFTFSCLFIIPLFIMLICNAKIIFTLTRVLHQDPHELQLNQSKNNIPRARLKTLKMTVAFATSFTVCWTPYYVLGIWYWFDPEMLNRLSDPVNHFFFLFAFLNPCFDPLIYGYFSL
Protocol: Compounds insoluble in DMSO at 10 mM were dropped from testing. […] The lead compound WAY207024 (1) was included as a reference in the cell assay. All IC50 values obtained for each test compound in the concentration dependent screening were converted into Ki values using the equation of Cheng and Prusoff.[15] […]
DMEM (Corning Hanks’ Balanced PBS +/- IBMX 1 mM IBMX in Cellgro 10- 013- Salt Solution (TBD by PBS
CV): 90%; (HBSS) titration)
_FBS (Seradigm with 20 mM
Plating cell density for Plating cell density for Forskolin concentration 384-well microplate 384-well microplate for cAMP assay (Gαi-for Ca++ assay for cAMP assay coupled) immediately immediately 5-15 μM without IBMX;
Assay preparations, pretreatment of cells and seeding on 384 well plates.
Thawing Medium was prepared by mixing commercially available stock solutions of DMEM (Corning Cellgro 10-013-CV) and Fetal Bovine Serum, FBS (Seradigm Catalog #1500-500) in a volume ratio of 9:1.
Vials containing 4 x 10^6 frozen cells were transferred from liquid nitrogen to a 37 °C water bath and gently warmed while submerged under water. Immediately after the frozen cells are thawed, the cryovial was removed from the water bath, dried and cleaned with 70% alcohol. Using a 2 mL serological pipette, the cell suspension was transferred to a 15-mL conical centrifuge tube containing 5 mL DMEM pre-warmed to r.t.. The mixture was triturated gently with the same 2 mL serological pipette without causing any air bubbles.
The 15-mL tube was spun at 200x g for 5 minutes at r.t. the supernatant was removed and cells were resuspended in 11 mL of DMEM complete to obtain a cell concentration of 360000 cells/ml. Based on previous titration of cell densitites, 9000 cells were seeded per well and the plate was incubated over night at 37 °C/CO 2.
1. Loading buffer from MD is prepared. Dissolve 1 vial of dye in 10 mL buffer from kit.
2. HBBS/Hepes (1x with Ca/Mg)/20 mM Hepes, pH 7.4 with 0.1 % BSA to be used for dilution of the agonist
3. 60 mL HBBS/20 mM Hepes to be added to test compounds
The day of the assay the seeding medium was carefully decanted from each well by tilting the plate. 25 µl loading buffer containing the Ca 2+ sensing dye was added to each well. Subsequently, 20 µL of HBBS/Hepes were added to each well containing dye. Plates were incubated at 37 °C for 45 min, after which 5 µL antagonist solution (diluted in HBBS/HEPES) were dispensed into each well using a Hamilton 384 well head followed by incubation at r.t. for 15 min. After 15 min agonist was added on the FLIPR platform and the fluorescence signal […]
First sequence: 2 s, 30 sample. (Baseline)
Second sequence: 2 s, 120 sample. (Agonist stimulation)
12.5 µL addiiton, after sample 30.
Addition speed: 20 µl/sec
Compound concentration: 5x, add 12.5 µl of each
One minute baseline stabilisation, 240 s measurement
Compound plate preparation:
Agonist stock solution: Luteinizing hormone releasing hormone, 10 mM in water […]
Dissolve 5 mg in 423 µL of water, store at -80 °C until use.
Prepare a full plate with only agonist at experimental EC50 dose as reported before on FLIPR platform:
Dilute 3,225 µL in 25 mL HBSS/Hepes buffer with 0.1 % BSA
Test compounds (antagonists)
Sample to be analysed (>95% pure by HPLC/microanalysis, fully characterised).
DMSO for cell culture (reference free, anhydrous) stored in desiccator 1: Dimethyl sulfoxide (Hybri-Max™, sterile-filtered, BioReagent, suitable for hybridoma, ≥99.7%, D2650-5X10ML, Sigma-Aldrich) […]
A - Solubility of the sample is assessed with an aliquot of the material and DMSO prior to sample preparation.
B - 10 ±1 mg of each neat, homogeneous sample are weighed into a labelled 1.5 mL flip-top Eppendorff tube.

rat GnRH receptor = target: rat GnRH receptor; set-up: method as in PMID 19271735; conditions: concentration to inhibit GnRH binding to the receptor by 50% ref 11; read-out: IC50 (rGnRH); cited from earlier work
human GnRH receptor = target: human GnRH receptor; set-up: method as in PMID 19271735; conditions: concentration to inhibit GnRH binding to the receptor by 50% ref 11; read-out: IC50 (hGnRH); cited from earlier work
[3] = pH 1.2 (simulated gastric fluid)
[4] = pH 7.4 (phosphate buffered saline)
[5] = calculated from mean IC50 using the Cheng–Prusoff equation, read-out: Ki (hGnRH)
[6] = inhibition of LHRH/GnRH stimulation in cells stably expressing hGnRH receptors, IC50 geometric mean of two experiments, read-out: pIC50 (hGnRH) (converted)

- solubility [1]: > 0.1 µM
Compound: C#CCN1CCN(c2cccc3[nH]c(-c4ccc(C(C)(C)C)cc4)nc23)CC1 [7b]

- Ki (hGnRH receptors; [5]): 38 nM
- IC50 (hGnRH receptors; [6]): 2000 nM
Compound: Cc1cn(C2CC(n3cc(CN4CCN(c5cccc6[nH]c(-c7ccc(C(C)(C)C)cc7)nc56)CC4)nn3)C(CO)O2)c(=O)[nH]c1=O (stereo not shown) [8g]
- solubility thermodynamic at 24 h [2, 3]: 1200 µg/mL (≈ 1880 µM)
- solubility thermodynamic at 24 h [2, 4]: < 1 µg/mL

- potency to inhibit GnRH receptor (in words) (hGnRH receptors): equally potent as 1
Compound: CC(C)(C)c1ccc(-c2nc3c(N4CCN(Cc5cn(CCF)nn5)CC4)cccc3[nH]2)cc1 [8a]
- solubility thermodynamic at 24 h [2, 3]: 2100 µg/mL (≈ 4550 µM)
- solubility thermodynamic at 24 h [2, 4]: 3 µg/mL (≈ 6.5 µM)
- solubility, times more soluble than 1 ([2]; relative to 1): 1.5 times

Compound: CC(C)(C)c1ccc(-c2nc3c(N4CCN(Cc5cccc6nccnc56)CC4)cccc3[nH]2)cc1 [compound 1]
- IC50 (rat GnRH receptor): 72 nM
- IC50 (human GnRH receptor): 12 nM

- IC50 (hGnRH receptors): > 10000 nM
- Ki (hGnRH receptors): > 1000 nM
Compound: CSc1nc(NC(C)C)nc(-n2cc(CN3CCN(c4cccc5[nH]c(-c6ccc(C(C)(C)C)cc6)nc45)CC3)nn2)n1 [8j]

- potency, fold lower than 1 (hGnRH receptors; relative to 1): 21 fold
- solubility [1]: > 0.1 µM
Compound: CC(C)(C)c1ccc(-c2nc3c(N4CCN(CCF)CC4)cccc3[nH]2)cc1 [7a]

- potency to inhibit GnRH receptor (in words) (hGnRH receptors): did not give the desired inhibition
Compound: CC(C)(C)c1ccc(-c2nc3c(N4CCN(Cc5cn(-c6ccc(F)cc6)nn5)CC4)cccc3[nH]2)cc1 [8i]

- Ki (hGnRH receptors; [5]): > 1000 nM
- IC50 (hGnRH receptors; [6]): > 10000 nM
Compound: CC(=O)NC1C(O)C(O)C(CO)OC1n1cc(CN2CCN(c3cccc4[nH]c(-c5ccc(C(C)(C)C)cc5)nc34)CC2)nn1 (stereo not shown) [8f]

- potency to inhibit GnRH receptor (in words) (hGnRH receptors): did not give the desired inhibition
Compound: CC(C)(C)c1ccc(-c2nc3c(N4CCN(Cc5cn(-c6nc7ccccc7[nH]6)nn5)CC4)cccc3[nH]2)cc1 [8h]
